These are literature values, as cited in US20070142399A1, “Dual function drugs and uses thereof” (Psychiatric Genomics, Inc., priority 2003, published 2007).

Data set [1] concerns the target D2 receptor (Homo sapiens, UniProt P14416).
Data set [2] has as its target D1 receptor (Homo sapiens, UniProt P21728).

Chain of D2 receptor (P14416 whole entry): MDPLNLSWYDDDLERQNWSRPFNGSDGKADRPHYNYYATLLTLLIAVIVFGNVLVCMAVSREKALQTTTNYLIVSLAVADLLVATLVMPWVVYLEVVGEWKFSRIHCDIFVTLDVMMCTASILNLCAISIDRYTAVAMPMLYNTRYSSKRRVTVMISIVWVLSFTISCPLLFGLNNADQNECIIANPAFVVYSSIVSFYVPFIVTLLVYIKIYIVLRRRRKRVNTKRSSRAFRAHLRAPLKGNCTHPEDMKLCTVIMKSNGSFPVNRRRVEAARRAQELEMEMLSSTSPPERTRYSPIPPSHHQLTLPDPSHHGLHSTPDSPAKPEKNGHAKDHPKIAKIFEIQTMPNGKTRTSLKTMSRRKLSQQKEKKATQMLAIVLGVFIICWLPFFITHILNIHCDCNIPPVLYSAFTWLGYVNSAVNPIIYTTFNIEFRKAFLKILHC
Chain of D1 receptor (P21728 whole entry): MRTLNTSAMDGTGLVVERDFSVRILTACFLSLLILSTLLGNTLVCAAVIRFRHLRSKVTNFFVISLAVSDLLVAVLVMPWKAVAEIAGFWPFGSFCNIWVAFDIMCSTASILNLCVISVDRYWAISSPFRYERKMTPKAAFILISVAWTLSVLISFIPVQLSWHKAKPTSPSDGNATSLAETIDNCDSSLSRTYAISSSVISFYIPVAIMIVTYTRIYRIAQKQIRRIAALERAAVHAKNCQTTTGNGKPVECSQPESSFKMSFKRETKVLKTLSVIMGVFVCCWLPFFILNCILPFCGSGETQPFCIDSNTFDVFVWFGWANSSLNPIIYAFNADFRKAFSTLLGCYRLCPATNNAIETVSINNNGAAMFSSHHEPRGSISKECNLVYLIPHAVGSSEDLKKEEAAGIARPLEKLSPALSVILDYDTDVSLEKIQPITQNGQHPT

Take `Oc1cc2c(cc1O)CC(NCc1ccccc1)CC2` (centres unmarked) [compound 80]: the D2 agonist activity entry in data set [1] was “residual partial D2 agonist activity”. For the same compound, the “potency at the D1 receptor as an agonist” value in data set [2] is on record as “not potent enough”.
